Data from patent US12440567B2, “Aqueous antibody formulation stabilized by antioxidants for parenteral administration” (AMGEN INC., priority 2007, dated 2025).

How the values were obtained:
[1] = system: Antibody A binding to its target antigen; test: Binding of Antibody A to its target antigen (CM5 sensor chip) after UV-B exposure of the formulation; details: 20 mM antioxidant; pH 5.20 acetate buffer; 302 nm UV light over 24 hours
Description: For the examples below involving exposure to UVB radiation, each sample was exposed to UVB light (λ≈302 nm) for varying times, using a UVP 8W model UVLMS-38 lamp at 4° C. The formulations were then analyzed using size exclusion chromatography high pressure liquid chromatography (SEC-HPLC). Aggregation (measured via SEC-HPLC analysis) and binding (measured using CM5 gold sensor chips) were measured to determine the effect of the antioxidant on aggregation and bioactivity of the therapeutic protein. The binding activity of therapeutic protein to a ligand (e.g. to an antibody or binding partner, or, in cases where the therapeutic was an antibody, binding activity to the specific target antigen or to protein A) was determined as follows. […] The therapeutic protein-binding ligand of interest was injected until the desired immobilization level was achieved (above 5000 response units). Three different therapeutic protein-binding ligands were measured—Antibody A's target antigen, Protein A, and D11 (an antibody that binds to erythropoietin). […] The remaining activated groups were blocked with 1.0 M ethanolamine-HCl, pH 8.5. […] Various UV-stressed antibody formulations were also diluted in HBS-EP buffer (pH 7.4) to a concentration within the standard curve region, and injected to quantitate the loss of bioactivity to its respective ligand-binding partner.

[2] = system: EPO binding to D11; test: Binding of EPO to D11 monoclonal antibody after UV-B exposure of the formulation; parameters: species or system human
Description: For the examples below involving exposure to UVB radiation, each sample was exposed to UVB light (λ≈302 nm) for varying times, using a UVP 8W model UVLMS-38 lamp at 4° C. The formulations were then analyzed using size exclusion chromatography high pressure liquid chromatography (SEC-HPLC). Aggregation (measured via SEC-HPLC analysis) and binding (measured using CM5 gold sensor chips) were measured to determine the effect of the antioxidant on aggregation and bioactivity of the therapeutic protein. The binding activity of therapeutic protein to a ligand (e.g. to an antibody or binding partner, or, in cases where the therapeutic was an antibody, binding activity to the specific target antigen or to protein A) was determined as follows. […] The therapeutic protein-binding ligand of interest was injected until the desired immobilization level was achieved (above 5000 response units). Three different therapeutic protein-binding ligands were measured—Antibody A's target antigen, Protein A, and D11 (an antibody that binds to erythropoietin). […] The remaining activated groups were blocked with 1.0 M ethanolamine-HCl, pH 8.5. A standard curve was prepared by using native forms of the therapeutic protein of interest. Native forms of the therapeutic protein were diluted in HBS-EP buffer (pH 7.4) to concentrations between 1 and 5 μg/mL, and then injected on the column, prepared as described above to obtain a standard curve. At the end of each sample run, regeneration buffer was used to wash away any bound therapeutic protein in preparation for subsequent injections. Various UV-stressed antibody formulations were also diluted in HBS-EP buffer (pH 7.4) to a concentration within the standard curve region, and injected to quantitate the loss of bioactivity to its respective ligand-binding partner. […] The protein was exposed to the same conditions as Antibody A and Antibody B for up to 24 hours.

[3] = system: Antibody A (IgG1); test: SEC-HPLC aggregation of Antibody A (IgG1) after UV-B exposure; assay type: physicochemical; details: 20 mM antioxidant; 1 mg/mL Antibody A, 10 mM sodium acetate, 9% sucrose, pH 5.20; 302 nm UV-B 24 hours
Description: The SEC-HPLC conditions were as follows: a G3000 TOSOH SWXL column was used and the flowrate was set at 0.5 mL/min. […] For both IgG1 and IgG2, the mobile phase was 80 mM sodium phosphate, 300 mM sodium perchlorate, 10% isopropanol, pH 7.2, and each sample was run for 45 minutes.
For FIG. 5, the anti-streptavidin formulation was prepared having the following characteristics: 1 mg/mL anti-streptavidin mAb (IgG2), 10 mM sodium acetate, 5% sorbitol, and pH 5.00. For FIG. 6, the Antibody A formulation was prepared having the following characteristics: 1 mg/mL Antibody A (IgG1), 10 mM sodium acetate, 9% sucrose, and pH 5.20.

[4] = system: anti-streptavidin (IgG2 antibody); test: Thermal aggregation of anti-streptavidin at 52° C. for 10 days; assay type: physicochemical; details: 10 mM antioxidant; 50 mM sodium acetate pH 5.00; no UV
Description: The SEC-HPLC conditions were as follows: a G3000 TOSOH SWXL column was used and the flowrate was set at 0.5 mL/min. […] Anti-streptavidin was formulated in 50 mM sodium acetate at pH 5.00. These formulations were not exposed to UV radiation but assessed on their thermal stability.

[5] = system: Antibody A; test: Discoloration (yellowing) of Antibody A formulations after UV-B exposure; assay type: physicochemical; details: UV-B light 24 hours
Description: Discoloration can be assessed visually or by measurement of absorbance at a specific wavelength.
Proteins may also become yellow in color following exposure to UV light.
Pyridoxine is another water soluble B-vitamin (B6) which was studied as a possible antioxidant for preventing protein aggregation caused by UV-B exposure.

binding of Antibody A to its target antigen after UV exposure [1]: preserved
binding of EPO to D11 mAb after UV light exposure ([2]; 20 mM antioxidant, up to 24 hours UV): able to significantly preserve
amount of aggregate of Antibody A (SEC-HPLC) [3]: dramatically reduced
yellowing of Antibody A formulation ([5]; 10 mM additive alone): no appreciable yellowing
yellowing of Antibody A formulation ([5]; 10 mM antioxidant in the presence of 10 mM methionine): no appreciable yellowing
SMILES: COc1cc(/C=C/C(=O)O)ccc1O [ferulic acid]
EPO binding activity to D11 during UV-B exposure ([2]; 0.1 mM antioxidant, UV-B up to 24 hours): able to protect the EPO from degradation and preserve its binding activity
aggregation of anti-streptavidin after 10 days at 52° C. [4]: contributed to the aggregation of anti-streptavidin
